Assay results published in patent US20250188067A1, “SALT AND CRYSTAL FORM OF DIPEPTIDYL PEPTIDASE INHIBITOR COMPOUND” (HAISCO PHARMACEUTICALS PTE. LTD., priority 2022, published 2025).
≈ marks a conversion by molar mass, not a printed value.

Assays:
[1] = The pharmacokinetic test of rat; type: in vivo; conditions: male SD rats, Gavage (3 mg/kg)
Procedure: • 1.1 Test animals: male SD rats, about 220 g, 6 to 8 weeks old, 6 rats/compound. Purchased from Chengdu Senwell Experimental Animals Co., Ltd. • 1.2 Test design: On the day of the test, 6 SD rats were randomly divided into groups according to body weight. Water and no food for 12 to 14 hours one day before administration, and food 4 hours after administration.
Vehicle for intravenous administration: 5% DMA+5% Solutol+90% Saline; vehicle for gavage administration: 0.5% MC; the reference compound INS1007, which is Compound 2 in patent WO2015110826A1, was prepared according to the method of the patent.
Before and after administration, 0.1 mL of blood was taken from the orbit under isoflurane anesthesia. It was placed in an EDTAK2 centrifuge tube, and centrifuged at 5000 rpm and 4° C. for 10 min, and the plasma was collected. Time points of blood collection in the intravenous groups: 0, 5, 15, 30 min, 1, 2, 4, 6, 8, 24 h; time points of blood collection in the gavage groups: 0, 5, 15, 30 min, 1, 2, 4, 6, 8, 24 h. Before analysis and detection, all samples were stored at −80° C.

[2] = Solid stability evaluation (XRPD and HPLC) at 25° C./60% RH and 40° C./75% RH; type: physicochemical; conditions: for Crystalline form change: XRPD
[3] = HPLC impurities of solid stability samples; type: physicochemical
[4] = Hygroscopicity by Dynamic Vapour Sorption (DVS); type: physicochemical; conditions: 25° C./80% RH
Procedure: The hygroscopicity of the crystalline A of hydrochloride, crystalline A of malate and crystalline B of adipate was evaluated by a Dynamic Vapour Sorption (DVS) instrument. Crystalline form […] starts with ambient humidity (˜60% RH), and crystalline form B starts with 0% relative humidity (0% RH). The test collected mass change percentage of the sample under constant temperature conditions of 25° C., with changes in humidity (60% RH-95% RH-0% RH-95% RH or 0% RH-95% RH-0% RH). The test results are shown in FIGS. 103, 104 and 105 respectively.

[5] = Dynamic solubility; type: physicochemical; conditions: thermodynamic from solid, 37° C.
Procedure: A sample of about 0.9 mL was taken, centrifuged and filtered, tested the solid by XRPD, and tested the liquid by HPLC concentration and pH.

[6] = biological target: Recombinant human DPP1 enzyme (Homo sapiens (Human), UniProt P53634); assay: Activity detection test of DPP1 enzyme in vitro
Chain of Recombinant human DPP1 enzyme (P53634 25-134): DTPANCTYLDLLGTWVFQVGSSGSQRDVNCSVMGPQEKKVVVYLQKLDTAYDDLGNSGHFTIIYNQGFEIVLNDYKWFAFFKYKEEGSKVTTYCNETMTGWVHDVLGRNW
Chain of Recombinant human DPP1 enzyme (P53634 231-394): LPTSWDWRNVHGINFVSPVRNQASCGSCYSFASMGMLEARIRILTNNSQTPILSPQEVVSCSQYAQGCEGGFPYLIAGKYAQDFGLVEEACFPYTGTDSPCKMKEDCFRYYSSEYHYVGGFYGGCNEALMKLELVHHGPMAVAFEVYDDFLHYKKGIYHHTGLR
Chain of Recombinant human DPP1 enzyme (P53634 395-463): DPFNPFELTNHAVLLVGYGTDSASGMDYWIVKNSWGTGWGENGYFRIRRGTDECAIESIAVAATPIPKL

| SMILES | HPLC purity (Area %) ([2]; 25° C./60% RH, 1 week) | Purity/Starting purity (%) ([2]; 25° C./60% RH, 1 week) | Crystalline form change ([2]; 25° C./60% RH, 1 week) | HPLC purity (Area %) ([2]; 25° C./60% RH, 3 weeks) | Purity/Starting purity (%) ([2]; 25° C./60% RH, 3 weeks) | HPLC purity (Area %) ([2]; 40° C./75% RH, 1 week) | Purity/Starting purity (%) ([2]; 40° C./75% RH, 1 week) | Crystalline form change ([2]; 40° C./75% RH, 1 week) | HPLC purity (Area %) ([2]; 40° C./75% RH, 3 weeks) | Purity/Starting purity (%) ([2]; 40° C./75% RH, 3 weeks) | HPLC purity (Area %) ([2]; Starting) | HPLC peak at RRT 1.00 ([3]; RRT 1.00, 25° C./60% RH/1 W) | HPLC peak at RRT 1.00 ([3]; RRT 1.00, 25° C./60% RH/3 W) | HPLC peak at RRT 1.00 ([3]; RRT 1.00, 40° C./75% RH/1 W) | HPLC peak at RRT 1.00 ([3]; RRT 1.00, Starting) | HPLC impurity at RRT 1.12 ([3]; RRT 1.12, 25° C./60% RH/1 W) | HPLC impurity at RRT 1.12 ([3]; RRT 1.12, 25° C./60% RH/3 W) | HPLC impurity at RRT 1.12 ([3]; RRT 1.12, 40° C./75% RH/1 W) | HPLC impurity at RRT 1.12 ([3]; RRT 1.12, 40° C./75% RH/3 W) | HPLC impurity at RRT 1.12 ([3]; RRT 1.12, Starting) | other results |
| --- | --- | --- | --- | --- | --- | --- | --- | --- | --- | --- | --- | --- | --- | --- | --- | --- | --- | --- | --- | --- | --- |
| Cn1c(=O)oc2ccc(-c3ccc(C[C@@H](C#N)NC(=O)[C@@H]4CNCCCO4)cc3)cc21 [INS1007, reference compound] | – | – | – | – | – | – | – | – | – | – | – | – | – | – | – | – | – | – | – | – | F [1]: 88.1% |
| Cn1c(=O)oc2ccc(-c3ccc(C[C@@H](C#N)NC(=O)[C@@H]4CNCCCO4)c(F)c3)cc21.O=C(O)CC(O)C(=O)O [crystalline A of malate] | 99.89 | 100.0 | No | 99.91 | 100.0 | 99.92 | 100.0 | No | 99.92 | 100.0 | 99.90 | 99.89 | 99.91 | 99.92 | 99.90 | 0.11 | 0.09 | 0.08 | 0.08 | 0.10 | HPLC peak at RRT 1.00 ([3]; RRT 1.00, 40° C./75% RH/3 W): 99.92; water sorption [4]: 1.27% |
| Cn1c(=O)oc2ccc(-c3ccc(C[C@@H](C#N)NC(=O)[C@@H]4CNCCCO4)c(F)c3)cc21.O=C(O)CCCCC(=O)O [crystalline B of adipate] | 99.71 | 100.0 | No | 99.72 | 100.0 | 99.74 | 100.0 | No | 99.72 | 100.0 | 99.74 | 99.71 | 99.72 | 99.74 | 99.74 | 0.29 | 0.28 | 0.26 | 0.28 | 0.26 | HPLC peak at RRT 1.00 ([3]; RRT 1.00, 40° C./75% RH/3 W): 99.72; water sorption [4]: 0.24% |
| Cl.Cn1c(=O)oc2ccc(-c3ccc(C[C@@H](C#N)NC(=O)[C@@H]4CNCCCO4)c(F)c3)cc21 [crystalline A of hydrochloride] | 99.60 | 100.0 | No | 99.67 | 100.0 | 99.59 | 100.0 | No | 99.17 | 99.5 | 99.63 | 99.60 | 99.67 | 99.59 | 99.63 | 0.14 | 0.13 | 0.12 | 0.18 | 0.16 | HPLC impurity at RRT 1.06 ([3]; RRT 1.06, 25° C./60% RH/1 W): 0.26; HPLC impurity at RRT 1.06 ([3]; RRT 1.06, 25° C./60% RH/3 W): 0.21; HPLC impurity at RRT 1.06 ([3]; RRT 1.06, 40° C./75% RH/1 W): 0.20; HPLC impurity at RRT 1.06 ([3]; RRT 1.06, Starting): 0.21; HPLC impurity at RRT 1.16 ([3]; RRT 1.16, 40° C./75% RH/3 W): 0.06; HPLC impurity at RRT 1.28 ([3]; RRT 1.28, 40° C./75% RH/1 W): 0.09; HPLC impurity at RRT 1.28 ([3]; RRT 1.28, 40° C./75% RH/3 W): 0.17; water sorption [4]: 0.47% |
| Cn1c(=O)oc2ccc(-c3ccc(C[C@@H](C#N)NC(=O)[C@@H]4CNCCCO4)c(F)c3)cc21 [Compound I, (S)—N—((S)-1-cyano-2-(2-fluoro-4-(3-methyl-2-oxo-2,3-dihydrobenzo[d]oxazol-5-yl)phenyl)ethyl)-1,4-oxazepane-2-carboxamide] | – | – | – | – | – | – | – | – | – | – | – | – | – | – | – | – | – | – | – | – | solubility at 1 h ([5]; simulated gastric fluid, SGF): > 5200 µg/mL; solubility at 2 h ([5]; simulated gastric fluid, SGF): > 5200 µg/mL; solubility at 4 h ([5]; simulated gastric fluid, SGF): > 5300 µg/mL; solubility at 24 h ([5]; simulated gastric fluid, SGF): > 5200 µg/mL; solubility at 1 h ([5]; FaSSIF): 370 µg/mL (≈ 844 µM); solubility at 2 h ([5]; FaSSIF): 360 µg/mL (≈ 821 µM); solubility at 4 h ([5]; FaSSIF): 350 µg/mL (≈ 798 µM); solubility at 24 h ([5]; FaSSIF): 290 µg/mL (≈ 661 µM); solubility at 1 h ([5]; FeSSIF): 2700 µg/mL (≈ 6160 µM); solubility at 2 h ([5]; FeSSIF): 2700 µg/mL (≈ 6160 µM); solubility at 4 h ([5]; FeSSIF): 2700 µg/mL (≈ 6160 µM); solubility at 24 h ([5]; FeSSIF): 2300 µg/mL (≈ 5250 µM); solubility at 1 h ([5]; water, H2O): 35 µg/mL (≈ 79.8 µM); solubility at 2 h ([5]; water, H2O): 30 µg/mL (≈ 68.4 µM); solubility at 4 h ([5]; water, H2O): 16 µg/mL (≈ 36.5 µM); solubility at 24 h ([5]; water, H2O): 16 µg/mL (≈ 36.5 µM); F [1]: >100%; inhibitory activity against DPP1 (conclusion in words) [6]: high inhibitory activity |
